Measurements from publication PMC11676883, “Coumarins and Hesperetin Inhibit Human Respiratory Syncytial Virus Infection” (International Journal of Molecular Sciences, 2024).
“And” between values parts separate entries of the source, which are not always exact repeats. Identical values can stand only once. “Also recorded” adds a separate entry of the source. Like-named read-outs stand apart in the source and are kept apart here.

How the values were obtained:
RSV-luc (rA2-Rluc) [1] = experiment: Inhibition assay of β-cyclodextrin-encapsulated compounds on differentiated HBE cultures inoculated with RSV-luc; details: for inhibition compared with the PC (result in words) / mean difference vs positive control: encapsulated; for mean difference vs positive control / decrease in RSV infection: RSV-luc; for decrease in RSV infection: encapsulated with β-cyclodextrin, 48 h
[2] = tested on: rgRSV (recombinant green fluorescent protein-expressing RSV, strain A2); experiment: Inhibition test on rgRSV-infected HEp-2 cells (GFP foci); details: 24-72 h, coumarin, esculin, umbelliferone 300 µM, esculetin 150 µM, 4-methyl 150 µM
A549 cells [3] = experiment: MTT cytotoxicity assay on A549 cells; details: A549 cells
RSV-luc (rA2-Rluc) [4] = details: A549 cells; for inhibition of RSV-luc (result in words): not encapsulated, luciferase RLU; for Selectivity Index (SI): from CC50 and IC50
[5] = MTT cytotoxicity assay on A549 cells; details: human
RSV-luc (rA2-Rluc) [6] = experiment: microbe, parasite or virus in culture; details: human respiratory syncytial virus, A549, read-out: IC50 (concentration inhibiting 50% viral replication)
A549 cells [7] = details: human, 48 h
influenza virus = tested on: influenza virus; parameters: method as in PMID 20092255; details: plaque reduction assay, cited from earlier work
[8] = MTT, 24 h, modified umbelliferones

Compound	inhibition compared with the PC (result in words) (RSV-luc (rA2-Rluc) [1])	inhibition of rgRSV (result in words) [2]	concentration at which the cells were 80% viable (A549 cells [3]; MTT, 48 h) [µM]	viral inhibition at 24 h (RSV-luc (rA2-Rluc) [4]; RSV-luc)	viral inhibition at 48 h (RSV-luc (rA2-Rluc) [4]; RSV-luc)	inhibition of RSV-luc (result in words) (RSV-luc (rA2-Rluc) [4])	CC50 [5] [µM]	IC50 (RSV-luc (rA2-Rluc) [6]) [µM]	concentration at which the cells were 80% viable (A549 cells [7]) [µM]	Selectivity Index (SI) (RSV-luc (rA2-Rluc) [4])	further results
5,7-Dihydroxycoumarin-4-methylcoumarin [4-methyl esculetin]	no significant inhibition	inhibited rgRSV effectively	75	about 40%	inhibition doubling	reduced luciferase gene expression					CC50 (A549 cells [3]; read-out: CC50 (concentration causing 50% cytotoxicity), MTT, extrapolated from CC90 and CC100): 1040 µM; IC50 (RSV-luc (rA2-Rluc) [4]; read-out: IC50 (concentration inhibiting 50% viral replication), RSV-luc): 70 µM
O=c1ccc2ccccc2o1 [Coumarin, 1,2 Benzopyrone]		did not				did not show inhibition; also recorded: no reduction in infection	3560	1650	300	2.16	mean difference vs positive control (RSV-luc (rA2-Rluc) [1]): 19,333,333 RLU
O=c1ccc2cc(O)c(O)cc2o1 [Esculetin, 6,7-Dihydroxycoumarin]		inhibited rgRSV effectively		approximately 50%	70%	reduced luciferase gene expression	1410	180	125	7.56	decrease in RSV infection (RSV-luc (rA2-Rluc) [1]): ~15%; mean difference vs positive control (RSV-luc (rA2-Rluc) [1]): 12,600,000 RLU
O=c1ccc2cc(O[C@@H]3O[C@H](CO)[C@@H](O)[C@H](O)[C@H]3O)c(O)cc2o1 [Esculin, 6,7-Dihydroxycoumarin-6-glucoside]	no significant inhibition	did not	300			did not show inhibition	1930	1590		1.21	
COc1ccc(C2CC(=O)c3c(O)cc(O)cc3O2)cc1O (stereo not drawn) [Hesperetin, 3′,5,7-Trihydroxy-4′-methoxyflavanone]	no significant inhibition			57%	not maintained	reduced luciferase gene expression	2670	360	300	7.39	decrease in RSV infection (RSV-luc (rA2-Rluc) [1]): ~7% and 7.5%
CN[C@@H]1C[C@H]2O[C@@](C)([C@@H]1OC)n1c3ccccc3c3c4c(c5c6ccccc6n2c5c31)C(=O)NC4 [Staurosporine, reference compound]											cells unavailable (A549 cells [3]; Staurosporine 1 mM, 48 h): 50%
O=c1ccc2ccc(O)cc2o1 [Umbelliferone, 7-Hydroxycoumarin]	no significant inhibition	did not	300			did not show inhibition	2400	5140		0.46	
CC(=O)Oc1ccc2ccc(=O)oc2c1 [acetylated umbelliferone, 7-Acetoxycoumarin]											concentration that resulted in >80% viable cells (A549 cells [3]; [8]): 20 µM; cytotoxicity compared (result in words) (A549 cells [3]; [8]): higher cytotoxicity than prenylated umbelliferone
O=c1ccc2ccc3occc3c2o1 [angelicin]											reduction of influenza virus infection (influenza virus; 20 nM): 50%; reduction of influenza virus infection (result in words) (influenza virus; 100 nM): completely
OC[C@H]1O[C@@H]2O[C@H]3[C@H](O)[C@@H](O)[C@@H](O[C@H]4[C@H](O)[C@@H](O)[C@@H](O[C@H]5[C@H](O)[C@@H](O)[C@@H](O[C@H]6[C@H](O)[C@@H](O)[C@@H](O[C@H]7[C@H](O)[C@@H](O)[C@@H](O[C@H]8[C@H](O)[C@@H](O)[C@@H](O[C@H]1[C@H](O)[C@H]2O)O[C@@H]8CO)O[C@@H]7CO)O[C@@H]6CO)O[C@@H]5CO)O[C@@H]4CO)O[C@@H]3CO [β-cyclodextrin]											decrease of the available cells (A549 cells [7]): about 5%
